According to patent publication US7335500B2, “Production of fucosylated carbohydrates by enzymatic fucosylation synthesis of sugar nucleotides; and in situ regeneration of GDP-fucose” (The Scripps Research Institute, priority 1991, dated 2008):

Columns and labels:
GalT [1] = target: T1, GalT (Bos taurus, UniProt P08037); settings: cited from earlier work
T1 construct: purchased Sigma
T1 sequence (P08037 79-402 limits assumed): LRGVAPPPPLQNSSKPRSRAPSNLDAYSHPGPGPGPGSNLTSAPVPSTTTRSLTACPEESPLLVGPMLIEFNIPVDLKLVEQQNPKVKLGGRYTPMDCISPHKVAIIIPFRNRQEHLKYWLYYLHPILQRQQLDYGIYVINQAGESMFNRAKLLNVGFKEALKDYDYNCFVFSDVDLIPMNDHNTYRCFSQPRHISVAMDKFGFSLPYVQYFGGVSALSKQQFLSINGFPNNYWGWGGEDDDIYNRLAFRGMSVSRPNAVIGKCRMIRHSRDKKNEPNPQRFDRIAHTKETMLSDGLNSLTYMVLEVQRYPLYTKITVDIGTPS

[2] = target: T2, human plasma type α1,3FucT (Homo sapiens, UniProt Q11128); assay: Substrate specificity and inhibition study of α1,3FucT (GDP-14C-Fuc transfer assay); format: biochemical; settings: for IC50 / Vrel (relative maximal velocities) / Km: 0.1 mM GDP-Fuc; for IC50: 10 mM Mn2+ and 10 mM LacNAc at pH 6.2 and 37° C.; for Vrel (relative maximal velocities): 10 mM MnCl2 and 10 mM Galβ1,4GlcNAc, Galβ1,4GlcNAc = 100; for Km: acceptor substrate, 10 mM MnCl2
T2 sequence (Q11128 1-374): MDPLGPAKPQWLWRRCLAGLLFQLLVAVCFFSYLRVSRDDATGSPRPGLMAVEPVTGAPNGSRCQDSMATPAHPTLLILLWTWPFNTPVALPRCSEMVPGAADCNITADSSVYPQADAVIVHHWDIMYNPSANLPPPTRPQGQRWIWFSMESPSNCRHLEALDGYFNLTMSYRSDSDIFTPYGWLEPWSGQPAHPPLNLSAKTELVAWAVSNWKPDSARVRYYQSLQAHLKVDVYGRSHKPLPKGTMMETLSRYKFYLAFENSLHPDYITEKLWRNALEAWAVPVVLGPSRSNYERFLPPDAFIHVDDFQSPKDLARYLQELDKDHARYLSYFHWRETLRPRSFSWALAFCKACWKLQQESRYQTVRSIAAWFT
Method: (§1) The assay procedure was essentially the same as described previously [Fukowska-Latallo et al, Gene & Development, 4:1288 (1990)] with some modifications. A stock mixture containing 0.25 mM GDP-^14C-Fuc (5000 cpm/mL), 6.25 mM ATP, 25 mM MnCl2 and 62.5 mM sodium cacodylate buffer, pH 6.2 was mixed freshly and kept on ice. […] The incubation was carried out at 37° C. for 30 to 240 minutes depending upon the acceptor under study. Separate assays in the absence of acceptor were used to correct for background hydrolysis of GDP-Fuc. Upon completion of incubation, 400 μL of a 25 percent (v/v) suspension of QAE-Sephadex was added. […] From the supernatant fluid, 200 μL were extracted and mixed with 10 mL of scintillation cocktail. The radioactivity was counted on a scintillation counter. […] This assay can be run in the absence of ATP.

α2,3SiaT = target: T3, α2,3SiaT (Rattus norvegicus, UniProt Q02734); assay: Enzymatic sialylation with α2,3sialyltransferase; format: biochemical
T3 construct: fusion protein between the pre-insulin signal peptide and the catalytic domain of the sialyltransferase; pre-insulin signal peptide (N); made in house; host or cells: Sf-9 insect cells (baculovirus rBv2,3ST), secreted into the medium
T3 sequence (Q02734 48-374 limits assumed): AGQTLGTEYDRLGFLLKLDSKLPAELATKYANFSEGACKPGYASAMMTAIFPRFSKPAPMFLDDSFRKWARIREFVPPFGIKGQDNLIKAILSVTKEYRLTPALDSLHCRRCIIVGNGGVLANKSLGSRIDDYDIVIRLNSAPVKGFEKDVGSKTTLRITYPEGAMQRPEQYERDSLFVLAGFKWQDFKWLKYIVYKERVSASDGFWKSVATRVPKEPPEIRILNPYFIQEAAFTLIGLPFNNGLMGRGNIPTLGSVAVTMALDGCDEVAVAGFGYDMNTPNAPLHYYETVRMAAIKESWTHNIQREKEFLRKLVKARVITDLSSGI
Source text: Sialylation A multienzyme system for sialylation starts with NeuAc, [Gal-1-^13C]-LacNAcβOallyl, PEP, and catalytic amounts of ATP and CMP, as is shown in Scheme 16, below. CMP was converted to CDP by nucleoside monophosphate kinase (EC 2.7.4.4, NMK) in the presence of ATP, which was regenerated from its byproduct ADP catalyzed by PK in the presence of PEP, then to CTP with PEP by PK. The CTP was then reacted with NeuAc with CMP-NeuAc synthetase (EC 2.7.7.43) to produce CMP-NeuAc. The byproduct, PPi was hydrolyzed to Pi by PPase. Sialylation of LacNAcβOallyl was accomplished with CMP-NeuAc and α2,3sialyltransferase (α2,3SiaT; EC 2.4.99.6). The released CMP was again converted to CDP, CTP, and finally to CMP-NeuAc. Using this system, [Gal-1-^13C]NeuAcα2,3Galβ1,4GlcNAcβOallyl (Compound 42) as well as the unlabelled trisaccharide were prepared.
A solution of Compound 1-^13C-41 (210 mg, […]), NeuAc (160 mg, […]), PEP Na3 salt (120 mg, 0.51 mmol), MgCl2.6H2O (20 mg, 0.10 mmol), MnCl2.4H2O (4.9 mg, 0.025 mmol), KCl (7.5 mg, 0.10 mmol), CMP (16 mg, 0.05 mmol), ATP (2.7 mg, […]) and mercaptoethanol (0.34 mL) in HEPES buffer (200 mM, pH 7.5; 3.5 mL) was adjusted with N NaOH to pH 7.5 and the enzymes, NMK (5 U), PK (100 U), PPase (10 U), CMP-NeuAc synthetase (0.4 U) and α2,3SiaT (0.1 U) were added to the solution. […]

α1,3/4Fucosyltransferase = target: T4, α1,3/4Fucosyltransferase (Homo sapiens, UniProt P21217); assay: Substrate specificity and inhibition study of α1,3/4FucT (GDP-14C-Fuc transfer assay); format: biochemical; settings: for Vrel (relative velocities): 0.20 mM GDP-Fuc, 20 mM MnCl2, 10 mM acceptor, Galβ1,4GlcNAc = 100
T4 sequence (P21217 1-361): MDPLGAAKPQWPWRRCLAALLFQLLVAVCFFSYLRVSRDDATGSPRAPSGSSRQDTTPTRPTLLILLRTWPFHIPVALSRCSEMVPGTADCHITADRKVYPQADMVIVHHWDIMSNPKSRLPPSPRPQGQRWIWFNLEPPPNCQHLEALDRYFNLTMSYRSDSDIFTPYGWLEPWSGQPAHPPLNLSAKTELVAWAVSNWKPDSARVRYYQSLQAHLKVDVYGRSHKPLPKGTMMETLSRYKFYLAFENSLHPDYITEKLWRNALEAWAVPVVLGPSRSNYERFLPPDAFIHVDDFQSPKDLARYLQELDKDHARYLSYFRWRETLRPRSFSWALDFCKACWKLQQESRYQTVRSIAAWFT
Method: as §1

GalT [3] = target: T1, GalT; assay: Kinetic study of GalT (rate of LacNAc formation, UDP-14C-Gal); format: biochemical; settings: 100 mM cacodylate pH 7.5, 9.3 mM Mn2+, 0.1 mM UDP-Gal, 20° C.
Method: Initial velocities of the enzyme reaction were determined by measuring the rate of LacNAc formation with a slight modification of the assay by Pierce et al. [Pierce et al., Anal. Biochem., 102:441 (1980)]. All the reactions were carried out in 100 mM cacodylate buffer (pH 7.5) with fixed concentrations of Mn^2+ (9.3 mm) and UDP-Gal (0.1 mM; 58.5 cpm/pmol of UDP-^14C-Gal) in […] of solution. The reaction was initiated by the addition of GalT (0.05 U, […]; from Sigma) and permitted to stand at 20° C. for 30 minutes. Nonspecific hydrolysis of UDP-Gal was measured by the control reaction in the absence of GalT. The reaction was stopped by passing through a column of QAE-Sephadex ([…]), and eluted by gentle air pressure to remove the unreacted UDP-Gal. The reaction vial was rinsed twice with […] of water each and passed through the resin column. The filtrates were collected and directly transferred into a scintillation vial. The scintillation fluid was added to the vial, and then radioactivity was counted by a liquid scintillation counter. […] Res., 159:315 (1987)] and Ki (0.46±0.06 mM) for UDP. Similarly, IC50 value of UDP for GalT was determined using different concentration of UDP.

Row | IC50 [2] [mM] | Compound | Vrel (relative maximal velocities) [2] | Vrel (relative velocities) (α1,3/4Fucosyltransferase) | also measured
1 | – | OC[C@H]1NC[C@H](O)[C@@H](O)[C@@H]1O [Deoxynojirimycin] | – | – | substrate for α1,4GalT (in words) (GalT [1]; Wong et al., J. Am. Chem. Soc., 113:8137-8145 (1991)): a substrate
2 | > 50 | OC[C@H]1O[C@@H](O[C@H]2[C@H](O)C=CO[C@@H]2CO)[C@H](O)[C@@H](O)[C@H]1O [Galβ1,4Glucal] | 10 | – | substrate for α2,3SiaT (in words) (α2,3SiaT): good substrate
3 | 8 | OC[C@H]1NC[C@H](O)[C@@H](O)[C@@H]1O[C@@H]1O[C@H](CO)[C@H](O)[C@H](O)[C@H]1O [Galβ1,4deoxynojirimycin] | – | – | IC50 (α1,3/4Fucosyltransferase; inhibitor concentration required to give 50% inhibition with 0.2 mM GDP-Fuc): 40 mM
4 | – | CC(=O)N[C@H]1C(O)O[C@H](CO)[C@@H](O)[C@@H]1O (some centres unmarked) [GlcNAc, N-acetylglucosamine] | – | – | Km (GalT [1]; reported in Palcic et al., Carbohydr. Res., 159:315 (1987)): 1.3 ± 1 mM
5 | > 50 | CC(=O)N[C@H]1[C@H](O[C@H]2[C@H](O)[C@@H](NC(C)=O)C(O)O[C@@H]2CO)O[C@H](CO)[C@@H](O)[C@@H]1O (some centres unmarked) [GlcNAcβ1,4GlcNAc] | – | 23 | –
6 | – | CC(=O)NC1C(O)OC(CO)C(OC2OC(CO)C(O)C(OC3(C(=O)O)CC(O)C(NC(C)=O)C(C(O)C(O)CO)O3)C2O)C1O (centres unmarked) [NeuAcα2,3Galβ1,4GlcNAc] | 620 | 60 | Km [2]: 100 mM; relative maximum velocity (Vrel) based on LacNAc ([2]; relative rate at Vmax): 620%
7 | – | O=c1ccn([C@@H]2O[C@H](COP(=O)(O)OP(=O)(O)O)[C@@H](O)[C@H]2O)c(=O)[nH]1 [UDP, uridine 5′-diphosphate] | – | – | Ki (GalT [3]): 0.46 mM
8 | – | Galβ1,4GlcNAc | 100 | 100 | Km [2]: 35 mM
